Structures can show the parent of a compound that is named as a salt.
Test system: proteasome
Test: Cellular proteasome inhibition test: accumulation of 4Ub-Luc reporter (luciferase activity) in DLD-1 4Ub-Luc cell line
Assay type: cell-based, human
Settings: DLD-1 4Ub-Luc cells, 8 hours, epoxomicin = 100%
Experimental: Biological tests were carried out according to protocols described in the following articles: Ausseil F. et al. J. Biomol Screen. 2007, 12, 106-116 and Vandenberghe I. et al. Biochemical Pharmacology 2008, 76, 453-462.
In order to select novel proteasome inhibitor compounds, it is necessary to indirectly measure the activity of this proteasome within cells. To this end, we constructed a stable cell line, DLD-1 4Ub-Luc, arising from a human colon cancer cell line, which produces a chimeric reporter protein called 4Ub-Luc. This protein is a fusion between a 4-ubiquitin (4Ub) label and luciferase (Luc). This label is capable to direct every proteins that carry it toward the proteasome. The 4Ub-Luc protein is thus efficiently degraded by the proteasome, in contrast to the “wild” non-fused Luc protein. When the DLD-1 4Ub-Luc cell line is treated with a proteasome inhibitor, the fusion protein is much less efficiently degraded and accumulates in the cell. This accumulation is detected by an increase in luciferase activity in the treated extract compared to the extract from untreated cells. The control consists of verifying that the inhibitor has no effect on accumulation of the wild Luc protein produced by the stable DLD-1 RF cell line. For both cell lines and for each product an induction factor is determined for the product tested (or the reference) corresponding to the ratio between the luciferase activities measured in cells treated with this product (or the reference) and cells treated with solvent alone.
The product's activity is then defined by its relative induction factor, i.e., the ratio of its induction factor (IF % luminescence) to that of the reference molecule epoxomicin (IF=100%; see data presented in the table below).
Thus, the test established by Pierre-Fabre is a cellular test that has the advantage, compared to a purely enzymatic test, of detecting only products capable of penetrating the cell.
Two cell lines are used for this test: DLD-1 RF and DLD-1 4Ub-Luc. The culture medium used is as follows: • MEM • 5% fetal calf serum • 5 ml of penicillin-streptomycin • 2.5 ml of FUNGIZONE® (Amphotericin B) • 10 ml of […]
Day 1: Inoculate white 96-well culture-treated plates (PerkinElmer White ViewPlate, product no. 6005181) with 100 μl of 1·10^5 c/ml cell suspension per well. Incubate for 24 hours so that the cells adhere. On each plate five columns will be inoculated with DLD-1 4Ub-Luc and five others with DLD-1 RF according to diagram 1 below.
Day 2: Remove the medium by turning the plates upside down on cotton, and then carry out the treatment with the compounds of the invention, with solvent alone or with a reference compound such as epoxomicin. […]
The columns are paired (examples 2 and 8, 3 and 9, 4 and 10 and 5 and 11) and treated with the same compound. Columns 6 and 7 receive the experimental control, namely 0.1% DMSO in culture medium for wells B, C, D, and E of columns 6 and 7, and the positive control (10^−7 M epoxomicin) in wells F and G.
After incubation, turn the plate upside down on cotton to empty the wells, rinse with 50 μl of PBS to remove any trace of the cytotoxin tested and then add 50 μl of 5× passive lysis buffer (Promega, product no. E1941) diluted to ⅕ in water. Shake energetically using a plate shaker for 5 to 10 minutes at room temperature before freezing at −20° C.
Luciferase activity is measured using a Luciferase Assay System 10-Pack kit (Promega, product no. E1501).
On the day luciferase activity is to be measured, defrost the plates and wait until they have returned to room temperature. The optimal temperature for luciferase activity is 20-25° C.
Reconstitute the firefly luciferase substrate by defrosting the buffer and then adding 10 ml of buffer to the bottle containing the freeze-dried substrate. Wait until the solution is at room temperature before beginning the assay. […]

[1] = concentration tested 5 · 10^−6 M
[2] = concentration tested 5 · 10^−7 M

Row | Structure (SMILES) | relative induction factor (IF % luminescence) versus epoxomicin [1] [%] | relative induction factor (IF % luminescence) versus epoxomicin [2] [%] | relative induction factor (IF % luminescence) versus epoxomicin (concentration tested 10^−6 M) [%] | relative induction factor (IF % luminescence) versus epoxomicin (concentration tested 10^−5 M) [%] | relative induction factor (IF % luminescence) versus epoxomicin (concentration tested 5 · 10^−6 M, hydrochloride) [%] | relative induction factor (IF % luminescence) versus epoxomicin (concentration tested 10^−5 M, hydrochloride) [%] | relative induction factor (IF % luminescence) versus epoxomicin (concentration tested 10^−6 M, hydrochloride) [%]
1 | C=C(C(=O)[C@H](OC(C)=O)[C@@H](C)[C@H]1[C@@H](OC(C)=O)C[C@@]2(C)[C@@H]3CC[C@H]4[C@H](C)C(=O)C=C[C@@]45C[C@@]35CC[C@]12C)[C@@H](C)COC(=O)Nc1ccccc1 [Compound 20, 26-N-phenylcarbamate-neoboutomellerone] | 60 | 6 | 42 | – | – | – | –
2 | C=C(C(=O)[C@H](OC(C)=O)[C@@H](C)[C@H]1[C@@H](OC(C)=O)C[C@@]2(C)C3CCC4[C@H](C)C(=O)C=C[C@@]45C[C@@]35CC[C@]12C)[C@@H](C)COC(=O)CNC(=O)OC(C)(C)C (some centres unmarked) [Compound 56, Neoboutomellerone 26-N-Boc-glycinate] | 34 | – | 21 | 7 | – | – | –
3 | CC(=O)O[C@H]1C[C@@]2(C)C3CCC4[C@H](C)C(=O)C=C[C@@]45C[C@@]35CC[C@]2(C)[C@H]1[C@H](C)[C@@H](OC(C)=O)C1=C(CN=[N+]=[N-])C(C)CO1 (some centres unmarked) [Compound 47, Azido-methyl-dihydro-furan-neoboutomellerone Derivative] | 78 | – | 7 | 36 | – | – | –
4 | C=C(C(=O)[C@H](OC(C)=O)[C@@H](C)[C@H]1[C@@H](OC(C)=O)C[C@@]2(C)C3CCC4[C@H](C)C(=O)C=C[C@@]45C[C@@]35CC[C@]12C)[C@@H](C)COP(=O)(OCC)OCC (some centres unmarked) [Compound 92, 26-(diethylphosphate)-neoboutomellerone] | 16 | 3 | 43 | 2 | – | – | –
5 | C=C(C(=O)[C@H](OC(C)=O)[C@@H](C)[C@H]1[C@@H](OC(C)=O)C[C@@]2(C)[C@@H]3CC[C@H]4[C@H](C)C(=O)C=C[C@@]45C[C@@]35CC[C@]12C)[C@@H](C)COC(=O)N1CCN(C)CC1 [Compound 22, 26-N—(N-methylpiperazine)carbamate-neoboutomellerone hydrochloride] | 4 | 8 | 68 | 1 | – | – | –
6 | C=C(C(=O)[C@H](OC(C)=O)[C@@H](C)[C@H]1[C@@H](OC(C)=O)C[C@@]2(C)[C@@H]3CC[C@H]4[C@H](C)/C(=N/OCc5ccccc5)C=C[C@@]45C[C@@]35CC[C@]12C)[C@@H](C)CO [Compound 36, 3-anti-O-benzyloxime-neoboutomellerone] | 12 | – | 1 | 6 | – | – | –
7 | C=C(C(=O)[C@H](O)[C@@H](C)[C@H]1[C@@H](OC(C)=O)C[C@@]2(C)[C@@H]3CC[C@H]4[C@H](C)C(=O)C=C[C@@]45C[C@@]35CC[C@]12C)[C@@H](C)COC(=O)Nc1ccc(N(C)C)cc1 [Compound 26, 26-N-(4-N,N-dimethylaniline)carbamate-22-deacetyl-neoboutomellerone] | 54 | 11 | 53 | 37 | – | – | –
8 | C=C([C@@H](C)COC)C1(O)O[C@H]2C[C@@]3(C)C4CCC5[C@H](C)C(=O)C=C[C@@]56C[C@@]46CC[C@]3(C)[C@H]2[C@H](C)[C@H]1OC(C)=O (some centres unmarked) [Compound 51, 16-deacetyl-26-methoxy-neoboutomellerone-hemiacetal] | 31 | – | 1 | 60 | – | – | –
9 | C=C(C(=O)[C@H](O)[C@@H](C)[C@H]1[C@@H](OC(C)=O)C[C@@]2(C)C3CCC4[C@H](C)C(=O)C=C[C@@]45C[C@@]35CC[C@]12C)[C@@H](C)COC(=O)CN(C)C (some centres unmarked) [Compound 65, 22-deacetyl-neoboutomellerone 26-N dimethyl glycinate hydrochloride] | – | 1 | – | – | 34 | 4 | 17
10 | C=C(C(=O)[C@H](OC(C)=O)[C@@H](C)[C@H]1[C@@H](OC(C)=O)C[C@@]2(C)[C@@H]3CC[C@H]4[C@H](C)C(=O)C=C[C@@]45C[C@@]35CC[C@]12C)[C@@H](C)COC(=O)Nc1ccc(N(C)C)cc1 [Compound 25, 26-N-(4-N,N-dimethylaniline)carbamate-neoboutomellerone] | 51 | 19 | 49 | 60 | – | – | –
11 | C=C(C(=O)[C@H](OC(C)=O)[C@@H](C)[C@H]1[C@@H](OC(C)=O)C[C@@]2(C)C3CCC4C(C)C(=O)C=CC45CC35CC[C@]12C)[C@@H](C)CO (stereo partly drawn) [Compound 4, Diastereoisomer of Ring A of Neoboutomellerone] | 84 | – | 2 | 24 | – | – | –
12 | C=C(C(=O)[C@H](O)[C@@H](C)[C@H]1[C@@H](OC(C)=O)C[C@@]2(C)C3CCC4[C@H](C)C(=O)C=C[C@@]45C[C@@]35CC[C@]12C)[C@@H](C)COC(=O)CCC(=O)O (some centres unmarked) [Compound 71, 26-succinate-22-deacetyl-neoboutomellerone] | 11 | 6 | 62 | 4 | – | – | –
13 | C=C(C(=O)[C@H](O)[C@@H](C)[C@H]1[C@@H](OC(C)=O)C[C@@]2(C)C3CCC4[C@H](C)C(=O)C=C[C@@]45C[C@@]35CC[C@]12C)[C@@H](C)COC(=O)CN(C)C (some centres unmarked) [Compound 64, 22-deacetyl-neoboutomellerone 26-N-dimethyl glycinate] | 35 | – | 22 | 7 | – | – | –
14 | C=C(C(=O)[C@H](O)[C@@H](C)[C@H]1[C@@H](OC(C)=O)C[C@@]2(C)[C@@H]3CC[C@H]4[C@H](C)C(=O)C=C[C@@]45C[C@@]35CC[C@]12C)[C@@H](C)CO [Compound 1, 22-deacetyl-neoboutomellerone] | 28 | 1 | 45 | 3 | – | – | –
15 | C=C(C(=O)[C@H](OC(C)=O)[C@@H](C)[C@H]1[C@@H](OC(C)=O)C[C@@]2(C)C3CCC4[C@H](C)C(=O)C=C[C@@]45C[C@@]35CC[C@]12C)[C@@H](C)COC(=O)CCC(=O)O (some centres unmarked) [Compound 68, 26-succinate-neoboutomellerone] | 18 | 1 | 52 | 4 | – | – | –

From US8785424B2, “ngCycloartanone derivatives with anticancer activity” (Pierre Fabre Medicament, priority 2009, dated 2014)
